# Assays:
# Assay in all cases: X-ray crystal structure, […] A, soaking
# Assay type in all cases: binding
# CtFDO (CtFDOdegl) [1] = target: T1, CtFDO (CtFDOdegl) (Thermochaetoides thermophila, UniProt G0SAW6); conditions: crystals at pH 5.5; thiophene in subsite S2, aliphatic moiety in catalytic site; occupancy 0.9; formic acid in S1
# T1 construct: gene CTHT_0048040; secreted from Aspergillus oryzae, no tag mentioned; signal peptide (21), next 20 N-terminal and 8 C-terminal residues absent; 595 residues by LC-MS/MS; endoglycosidase F1 deglycosylated; about 68 kDa; monomer
# T1 sequence (G0SAW6 entry or part of it): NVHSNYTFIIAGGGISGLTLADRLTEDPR
# T1 sequence (G0SAW6 entry or part of it): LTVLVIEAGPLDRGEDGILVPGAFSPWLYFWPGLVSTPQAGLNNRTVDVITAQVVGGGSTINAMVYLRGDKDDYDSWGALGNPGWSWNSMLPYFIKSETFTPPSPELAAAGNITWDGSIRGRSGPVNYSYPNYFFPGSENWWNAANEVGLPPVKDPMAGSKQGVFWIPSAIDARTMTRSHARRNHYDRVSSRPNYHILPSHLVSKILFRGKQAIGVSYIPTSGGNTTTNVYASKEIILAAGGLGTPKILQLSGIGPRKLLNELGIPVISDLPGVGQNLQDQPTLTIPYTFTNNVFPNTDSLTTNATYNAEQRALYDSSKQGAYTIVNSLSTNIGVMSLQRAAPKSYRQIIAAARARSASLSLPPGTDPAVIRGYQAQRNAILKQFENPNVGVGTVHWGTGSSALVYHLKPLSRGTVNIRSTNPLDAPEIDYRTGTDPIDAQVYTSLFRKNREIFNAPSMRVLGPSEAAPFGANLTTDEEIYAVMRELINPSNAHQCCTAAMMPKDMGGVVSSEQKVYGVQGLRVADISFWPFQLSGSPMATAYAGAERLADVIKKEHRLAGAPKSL
# CtFDO (CtFDOdegl) [2] = target: T1, CtFDO (CtFDOdegl); conditions: 20 mM MgCl2; two molecules per chain, subsites S1 and S3; occupancy 0.7-0.8; formic acid in catalytic site
# CtFDO (CtFDOdegl) [3] = target: T1, CtFDO (CtFDOdegl); conditions: crystals at pH 5.5; catalytic site; occupancy 1.0; formic acid in S1
compound,measurement,setting,value
"C[C@H](NC(=O)CCC(=O)c1cccs1)c1cccnc1 [PESB, 4-oxo-N-[(1S)-1-(pyridin-3-yl)ethyl]-4-(thiophen-2-yl)butanamide]","X-ray crystal structure, 1.60 A, soaking",CtFDO (CtFDOdegl) [1],each protein chain binds one PESB molecule
"O=[N+]([O-])c1ccc(O)c(O)c1 [4NC, 4-nitrocatechol]","X-ray crystal structure, 1.26 A, soaking",CtFDO (CtFDOdegl) [2],both CtFDOdegl chains bind two molecules of 4NC
"COC(=O)c1ccc(CN)cc1 [MAMB, methyl-4-(aminomethyl)benzoate]","X-ray crystal structure, 2.22 A, soaking",CtFDO (CtFDOdegl) [3],CtFDOdegl binds one MAMB molecule in the CS
